# Measurements published in patent publication US9885704B2, “Reagents and methods for cancer treatment and prevention” (priority 2006, dated 2018).
# Legend:
# HeLa cells = test: Pro-inflammatory cytokine release from THP-1 after exposure to compound-treated HeLa cells (ELISA); format: cell-based, human; settings: for TNF-α secretion / immunostimulatory activity: HeLa cells treated with compound, FIG. 1
# Method: The human cervical epithelium cell line HeLa and the mouse B16-F10 melanoma were purchased from American TCC and maintained in Dulbecco's modified eagle's media [D-MEM (Cellgro®, Herndon Va.)] supplemented with 10% fetal bovine serum (Sigma-Aldrich, St. Louis, Mo.). All cell stress/death-related treatments described below were performed using HeLa cells in initial screens. The human promonocytic leukemia THP-1 (ATCC, Manassas Va.) and pro-macrophage MonoMac6 cells were utilized as the reporter antigen presenting cells utilized in this study. Ziegler-Heitbrock et al., “Establishment of a human cell line (Mono Mac 6) with characteristics of mature monocytes” Int. J. Cancer 41:456-461 (1988). Both lines were maintained in RPMI-1640 media (Cellgro®) supplemented with 10% fetal bovine serum. Unless otherwise noted, all cells were maintained at 37° C. in a humidified incubator supplemented with 5% CO2.
# The following list includes the small molecule compounds evaluated in this study: thapsigargin, thapsigargicin (MP Biomedicals, Irvine Calif.), 1,2-bis(o-aminophenoxy)ethane-N,N,N′,N′-tetraacetic Acid Tetra(acetoxymethyl) ester [BAPTA-AM, (EMD Biosciences, San Diego, Calif.)], ethyleneglycol-bis(β-aminoethyl)-N,N,N′,N′-tetraacetoxymethyl ester [EGTA-AM (EMD Biosciences)], 1,2-bis(2-aminophenoxy)ethane-N,N,N′,N′-tetraacetic acid […], tetrandrine, KCl, Amyloid peptide Aβ1-42, 1-Oleoyl-2-acetyl-sn-glycerol (OAG), calcimycin A23187, 2-aminoethyl diphenylborinate (2-APB), histamine, cyclopiazonic acid, 2,5-di-(t-butyl)-1,4-hydroquinone [BHQ (EMD Biosciences)], GdCl3, nicardipine hydrochloride, 1-(o-chloro-α,αdiphenylbenzyl)imidazole (clotrimazole), apamin, charybdotoxin, radicicol, brefeldin A, tunicamycin, tamoxifen, ionomycin, staurosporine, cis-diammineplatinum(II) dichloride (cisplatin), paclitaxel, methotrexate, cycloheximide, and rapamycin. Unless otherwise noted, all compounds were purchased from Sigma-Aldrich. Compounds were dissolved per manufacturer's recommendations prior to addition to HeLa cells in a range of concentrations based on the published literature and incubated between 1 minute to two days. The known mediators of inflammation pam3cys-ser-(lys)4, hydrochloride (Pam3Cys), bacterial flagellin, and lipopolysaccharide were purchased from EMD Biosciences.
# Following cell stress/death, resulting cells/cell debris were collected, washed 3 times with excess phosphate-buffered saline, rapidly cycled through freeze/thaw (−80° C. to 25° C.) three times, and quantified by UV spectrophotometry (A280). To determine the presence of pro-inflammatory signals within stressed/dead cells, 40 μg of stressed/dead cell were added to 50,000 THP-1 and incubated for 18 hours. Supernatants were assessed for the presence of pro-inflammatory cytokines including tumor necrosis factor-α (TNF-α), interleukin 8 (IL-8), and IL-12 using commercially available ELISA systems.
# A variety of different potential cell stress and cell death inducing agents were screened. […] (See FIG. 1).
# [1] = tested on: Ca(2+)-ATPase from sarcoplasmic and endoplasmic reticula; settings: activity not further specified; context Ca(2+)-ATPase inhibitory potency; cited from earlier work
# [2] = tested on: NF-κB promoter (MonoMac-6 Clone C5); test: NF-κB promoter luciferase reporter, MonoMac-6 Clone C5; format: cell-based, human; settings: FIG. 11
# Description: A stably transfected DNA construct encoding a NF-κB promoter driving firefly luciferase expression was integrated into: i) human pre-monocytic cell line THP-1; and ii) human premonocytic cell line MonoMac-6. Briefly, DNA encoding a concatemerized NF-κB response element upstream of the firefly luciferase gene [Ting et al., “RIP mediates tumor necrosis factor receptor 1 activation of NF-kappaB but not Fas/APO-1-initiated apoptosis” EMBO J. November 15; 15(22):6189-96(1996)] was subcloned into the pEAK8 vector backbone (Edge Biosystems, Gaithersburg Md.) by standard molecular biology techniques. Electroporations were performed using 10 μg of DNA and 700,000 THP-1 or MonoMac6 cells using a Biorad Gene Pulser II electroporator (Biorad, Hercules Calif.), 0.4 cm electrocuvettes, and 200 V, 950 μF. Following electroporation, cells were allowed to recover for two days prior to selection with 300 ng/ml puromycin aminonucleoside (Sigma-Aldrich) for the generation of stably transfected clones. Luciferase expression was quantified using a Top Count NXT luminometer (Perkin Elmer, Wellesley Mass.). Briefly, 50,000 reporter cells were incubated with indicated concentrations of the mediators of inflammation listed for 18 hours in 96-well white plates prior to harvest and analysis.
# A second stable NF-κB reporter construct transfectant was created using MonoMac-6 cells. […]
# [3] = tested on: NF-κB promoter (THP-1 Clone A9); test: NF-κB promoter luciferase reporter, THP-1 Clone A9; format: cell-based, human; settings: 50,000 reporter cells, 18 hours; FIG. 10
# Description: A stably transfected DNA construct encoding a NF-κB promoter driving firefly luciferase expression was integrated into: i) human pre-monocytic cell line THP-1; and ii) human premonocytic cell line MonoMac-6. Briefly, DNA encoding a concatemerized NF-κB response element upstream of the firefly luciferase gene [Ting et al., “RIP mediates tumor necrosis factor receptor 1 activation of NF-kappaB but not Fas/APO-1-initiated apoptosis” EMBO J. November 15; 15(22):6189-96(1996)] was subcloned into the pEAK8 vector backbone (Edge Biosystems, Gaithersburg Md.) by standard molecular biology techniques. Electroporations were performed using 10 μg of DNA and 700,000 THP-1 or MonoMac6 cells using a Biorad Gene Pulser II electroporator (Biorad, Hercules Calif.), 0.4 cm electrocuvettes, and 200 V, 950 μF. […] Luciferase expression was quantified using a Top Count NXT luminometer (Perkin Elmer, Wellesley Mass.). […]
# The THP-1-derived clone A9 recognition of the TLR ligands Pam-3-Cys (signaling through TLR2) and bacterial flagellin (signaling through TLR5), but not bacterial lipopolysaccharide (signaling through TLR4) was determined by monitoring NF-κB activity in 96-well white plate automated assays during TG incubation. […]
Compound,TNF-α secretion / immunostimulatory activity (HeLa cells),also measured
"CC(=O)O[C@H]1C(=O)[C@@]2(C)[C@H]([C@H](OC(=O)c3ccccc3)[C@]3(O)C[C@H](OC(=O)[C@H](O)[C@@H](NC(=O)c4ccccc4)c4ccccc4)C(C)=C1C3(C)C)[C@]1(OC(C)=O)CO[C@@H]1C[C@@H]2O [Taxol®, paclitaxel]",did not induce immunostimulatory activity,–
C/C=C(/C)C(=O)O[C@H]1C(C)=C2[C@H]([C@@H]1OC(=O)CCCCC)[C@@](C)(OC(C)=O)C[C@H](OC(=O)CCC)[C@@]1(O)[C@H]2OC(=O)[C@@]1(C)O [Thapsigargicin],–,"secretion of IL-8 from THP-1 (HeLa cells; treated HeLa cells, monocyte cell line THP-1, FIG. 2): activated a dose-dependent secretion of IL-8"
"C[C@H]1CCC/C=C/[C@@H]2C[C@H](O)C[C@H]2[C@H](O)/C=C/C(=O)O1 [brefledin A, brefeldin A]",did not induce immunostimulatory activity,–
"CNc1ccc2oc(C[C@H]3O[C@@]4(CC[C@H]3C)O[C@H]([C@H](C)C(=O)c3ccc[nH]3)[C@H](C)C[C@H]4C)nc2c1C(=O)O [calcimycin, calcimycin A23187]",did not induce immunostimulatory activity,–
C/C=C(/C)C(=O)O[C@@H]1C[C@H]2[C@@H]([C@H]1C)[C@@H]1OC(=O)[C@@](C)(O)[C@@]1(O)C(OC(=O)[C@@H](C)CC)C[C@]2(C)OC(C)=O (stereo partly shown) [compound 77],–,activity of synthetic thapsigargin analogue [1]: potent activity
C[C@@H]1C[C@@H]([C@H](O)CC2CC(=O)NC(=O)C2)C(=O)[C@@H](C)C1 [cycloheximide],did not induce immunostimulatory activity,–
bacterial lipopolysaccharide,–,"recognition (NF-κB activity, luciferase) [2]: improved recognition"
"pam3cys-ser-(lys)4, hydrochloride",–,"recognition (NF-κB activity, luciferase) [3]: recognition; recognition (NF-κB activity, luciferase) [2]: recognized"
tunicamycin,did not induce immunostimulatory activity,–
